Measured values reported in ChEMBL document CHEMBL3297653, “2-Amino-7-substituted benzoxazole analogs as potent RSK2 inhibitors” (Bioorg Med Chem Lett, 2014).

Tests used:
MDA-MB-231 = experiment: Cytotoxicity against human MDA-MB-231 cells assessed as growth inhibition after 5 days by CellTitre-glo assay; assay type: functional, cell-based; conditions: MDA-MB-231, 120 h
Aurora kinase A = molecular target: T1, Aurora kinase A (Homo sapiens, UniProt O14965); experiment: Inhibition of aurora A (unknown origin)
T1 sequence (O14965 whole entry): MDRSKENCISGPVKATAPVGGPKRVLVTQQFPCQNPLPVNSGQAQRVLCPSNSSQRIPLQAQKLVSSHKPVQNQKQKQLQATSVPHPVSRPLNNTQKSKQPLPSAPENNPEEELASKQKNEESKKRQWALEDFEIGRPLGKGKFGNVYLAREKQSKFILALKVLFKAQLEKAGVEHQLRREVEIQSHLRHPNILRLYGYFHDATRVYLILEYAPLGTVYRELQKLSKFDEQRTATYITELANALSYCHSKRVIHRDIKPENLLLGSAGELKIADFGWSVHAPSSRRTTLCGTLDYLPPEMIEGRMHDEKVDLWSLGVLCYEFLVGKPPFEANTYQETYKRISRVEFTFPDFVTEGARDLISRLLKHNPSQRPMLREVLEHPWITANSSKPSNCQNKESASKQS

[1] = molecular target: Tyrosine-protein kinase JAK2 (Homo sapiens, UniProt O60674); experiment: Inhibition of JAK2 (unknown origin)
Chain of Tyrosine-protein kinase JAK2 (O60674 whole entry): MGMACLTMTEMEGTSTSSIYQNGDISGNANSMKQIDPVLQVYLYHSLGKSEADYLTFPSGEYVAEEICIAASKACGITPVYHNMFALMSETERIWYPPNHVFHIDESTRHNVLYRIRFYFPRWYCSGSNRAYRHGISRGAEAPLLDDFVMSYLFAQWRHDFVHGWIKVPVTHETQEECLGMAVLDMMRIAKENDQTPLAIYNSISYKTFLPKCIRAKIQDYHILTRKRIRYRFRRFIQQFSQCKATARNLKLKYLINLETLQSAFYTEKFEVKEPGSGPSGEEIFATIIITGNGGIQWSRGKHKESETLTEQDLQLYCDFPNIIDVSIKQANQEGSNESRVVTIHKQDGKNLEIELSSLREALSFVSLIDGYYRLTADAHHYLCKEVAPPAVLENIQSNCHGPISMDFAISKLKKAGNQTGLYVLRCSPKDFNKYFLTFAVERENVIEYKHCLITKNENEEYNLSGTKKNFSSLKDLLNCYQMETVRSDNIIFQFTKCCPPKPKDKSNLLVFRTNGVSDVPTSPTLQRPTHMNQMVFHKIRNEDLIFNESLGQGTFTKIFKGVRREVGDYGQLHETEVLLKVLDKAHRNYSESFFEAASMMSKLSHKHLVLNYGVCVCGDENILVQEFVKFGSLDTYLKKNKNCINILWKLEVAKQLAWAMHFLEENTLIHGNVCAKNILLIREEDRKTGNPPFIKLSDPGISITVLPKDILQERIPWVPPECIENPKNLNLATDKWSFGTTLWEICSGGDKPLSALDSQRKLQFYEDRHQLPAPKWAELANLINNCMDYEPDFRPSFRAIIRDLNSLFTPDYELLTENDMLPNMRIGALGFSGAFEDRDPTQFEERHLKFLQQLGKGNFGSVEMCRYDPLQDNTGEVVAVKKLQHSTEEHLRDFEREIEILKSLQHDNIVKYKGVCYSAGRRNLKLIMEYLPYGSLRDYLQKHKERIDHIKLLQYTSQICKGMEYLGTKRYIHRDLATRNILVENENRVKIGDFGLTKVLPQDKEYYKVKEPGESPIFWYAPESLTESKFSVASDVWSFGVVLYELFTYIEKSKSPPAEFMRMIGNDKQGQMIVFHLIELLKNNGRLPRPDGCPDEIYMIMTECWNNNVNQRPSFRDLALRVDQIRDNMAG

Compound: COc1cc(Nc2nc3cccc(-c4cccc5[nH]cnc45)c3o2)cc(OC)c1OC
- EC50 (MDA-MB-231): 580 nM
- IC50 (Aurora kinase A): 600 nM
- IC50 [1]: 460 nM
